Results reported in the kinase profiling compilation of Christmann-Franck et al. (2016).

Key:
Experiment in all cases: KINOMEscan competition binding
Conditions in all cases: compound 1.0 µM
SBK1 (human) = SBK1 (human) (UniProt Q52WX2)
OXSR1 (human) = OXSR1 (human) (UniProt O95747)
EPHA5 (human) = EPHA5 (human) (UniProt P54756)
NIM1 (human) = NIM1 (human) (UniProt Q8IY84)
CAMK1D (human) = CAMK1D (human) (UniProt Q8IU85)
MAP3K10 (human) = MAP3K10 (human) (UniProt Q02779)
[1] = tested on: PIK3CA (human), P42336 [Q546K]
PKN2 (human) = PKN2 (human) (UniProt Q16513)
PKN2 (human), sequence (Q16513 whole entry, looked up): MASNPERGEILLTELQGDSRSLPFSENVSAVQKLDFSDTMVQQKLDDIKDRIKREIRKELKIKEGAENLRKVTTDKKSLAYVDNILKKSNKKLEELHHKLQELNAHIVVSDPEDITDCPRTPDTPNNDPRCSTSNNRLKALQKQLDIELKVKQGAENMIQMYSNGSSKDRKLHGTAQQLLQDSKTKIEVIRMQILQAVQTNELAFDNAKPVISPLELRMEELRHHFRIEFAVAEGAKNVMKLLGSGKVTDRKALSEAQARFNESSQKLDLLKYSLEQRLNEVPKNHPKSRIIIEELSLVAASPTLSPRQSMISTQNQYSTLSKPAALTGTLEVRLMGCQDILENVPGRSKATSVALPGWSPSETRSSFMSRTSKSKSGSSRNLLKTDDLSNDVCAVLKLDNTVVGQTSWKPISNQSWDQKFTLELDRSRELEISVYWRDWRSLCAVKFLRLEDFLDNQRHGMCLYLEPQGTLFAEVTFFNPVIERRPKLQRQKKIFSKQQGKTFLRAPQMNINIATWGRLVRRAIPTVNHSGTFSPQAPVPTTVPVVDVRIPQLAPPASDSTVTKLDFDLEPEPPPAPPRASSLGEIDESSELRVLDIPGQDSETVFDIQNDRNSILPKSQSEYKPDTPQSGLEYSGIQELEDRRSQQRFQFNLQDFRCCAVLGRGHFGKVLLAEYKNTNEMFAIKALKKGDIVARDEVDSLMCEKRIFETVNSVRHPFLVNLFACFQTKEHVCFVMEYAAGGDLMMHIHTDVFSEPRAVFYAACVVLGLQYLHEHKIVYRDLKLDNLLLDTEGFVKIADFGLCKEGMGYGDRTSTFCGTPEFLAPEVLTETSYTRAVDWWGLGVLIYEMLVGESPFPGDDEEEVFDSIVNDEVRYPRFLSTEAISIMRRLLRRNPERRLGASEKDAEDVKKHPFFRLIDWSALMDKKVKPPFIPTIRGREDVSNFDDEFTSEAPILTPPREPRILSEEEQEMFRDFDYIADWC

TAOK3 (human) = TAOK3 (human) (UniProt Q9H2K8)
[2] = tested on: ABL1 (human), P00519 [Y253F]
LIMK2 (human) = LIMK2 (human) (UniProt P53671)
FES (human) = FES (human) (UniProt P07332)
FES (human), sequence (P07332 whole entry, looked up): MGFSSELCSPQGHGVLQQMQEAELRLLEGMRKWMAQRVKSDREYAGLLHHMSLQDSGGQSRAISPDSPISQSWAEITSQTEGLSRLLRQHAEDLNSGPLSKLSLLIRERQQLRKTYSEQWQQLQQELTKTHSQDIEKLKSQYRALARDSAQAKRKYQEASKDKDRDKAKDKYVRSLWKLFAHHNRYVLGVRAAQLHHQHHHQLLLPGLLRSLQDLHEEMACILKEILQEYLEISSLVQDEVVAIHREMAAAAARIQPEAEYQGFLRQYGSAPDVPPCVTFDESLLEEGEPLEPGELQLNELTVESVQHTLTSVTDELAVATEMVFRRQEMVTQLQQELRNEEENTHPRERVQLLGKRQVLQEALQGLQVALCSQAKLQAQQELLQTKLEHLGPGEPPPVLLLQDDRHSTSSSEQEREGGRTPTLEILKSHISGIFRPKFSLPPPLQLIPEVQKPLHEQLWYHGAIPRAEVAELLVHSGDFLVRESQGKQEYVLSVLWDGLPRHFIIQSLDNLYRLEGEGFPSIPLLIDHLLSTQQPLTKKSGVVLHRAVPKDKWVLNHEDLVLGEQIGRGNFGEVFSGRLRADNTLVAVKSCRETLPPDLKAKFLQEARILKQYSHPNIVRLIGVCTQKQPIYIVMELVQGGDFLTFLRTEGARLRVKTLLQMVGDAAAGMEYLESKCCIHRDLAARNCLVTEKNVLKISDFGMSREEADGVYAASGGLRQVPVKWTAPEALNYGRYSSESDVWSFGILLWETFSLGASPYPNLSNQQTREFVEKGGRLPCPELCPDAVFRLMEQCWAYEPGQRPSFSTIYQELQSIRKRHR

CLK2 (human) = CLK2 (human) (UniProt P49760)
NEK2 (human) = NEK2 (human) (UniProt P51955)
MAP3K6 (human) = MAP3K6 (human) (UniProt O95382)
CHUK (human) = CHUK (human) (UniProt O15111)
AKT2 (human) = AKT2 (human) (UniProt P31751)
AKT2 (human), sequence (P31751 whole entry, looked up): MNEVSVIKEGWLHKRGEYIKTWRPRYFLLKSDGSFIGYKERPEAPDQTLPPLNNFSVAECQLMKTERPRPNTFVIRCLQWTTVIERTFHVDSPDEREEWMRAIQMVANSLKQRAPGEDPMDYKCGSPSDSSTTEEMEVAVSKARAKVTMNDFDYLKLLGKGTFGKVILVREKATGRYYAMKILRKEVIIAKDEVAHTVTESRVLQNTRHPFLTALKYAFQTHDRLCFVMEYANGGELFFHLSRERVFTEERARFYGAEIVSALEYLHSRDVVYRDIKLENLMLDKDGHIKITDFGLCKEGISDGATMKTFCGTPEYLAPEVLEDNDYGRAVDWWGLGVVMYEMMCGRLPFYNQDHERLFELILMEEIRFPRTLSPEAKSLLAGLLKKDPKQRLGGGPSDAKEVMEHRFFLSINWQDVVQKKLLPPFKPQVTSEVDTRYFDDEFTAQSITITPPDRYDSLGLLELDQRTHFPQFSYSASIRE

YES1 (human) = YES1 (human) (UniProt P07947)
TEK (human) = TEK (human) (UniProt Q02763)
MAPK10 (human) = MAPK10 (human) (UniProt P53779)
PLK3 (human) = PLK3 (human) (UniProt Q9H4B4)
PLK3 (human), sequence (Q9H4B4 whole entry, looked up): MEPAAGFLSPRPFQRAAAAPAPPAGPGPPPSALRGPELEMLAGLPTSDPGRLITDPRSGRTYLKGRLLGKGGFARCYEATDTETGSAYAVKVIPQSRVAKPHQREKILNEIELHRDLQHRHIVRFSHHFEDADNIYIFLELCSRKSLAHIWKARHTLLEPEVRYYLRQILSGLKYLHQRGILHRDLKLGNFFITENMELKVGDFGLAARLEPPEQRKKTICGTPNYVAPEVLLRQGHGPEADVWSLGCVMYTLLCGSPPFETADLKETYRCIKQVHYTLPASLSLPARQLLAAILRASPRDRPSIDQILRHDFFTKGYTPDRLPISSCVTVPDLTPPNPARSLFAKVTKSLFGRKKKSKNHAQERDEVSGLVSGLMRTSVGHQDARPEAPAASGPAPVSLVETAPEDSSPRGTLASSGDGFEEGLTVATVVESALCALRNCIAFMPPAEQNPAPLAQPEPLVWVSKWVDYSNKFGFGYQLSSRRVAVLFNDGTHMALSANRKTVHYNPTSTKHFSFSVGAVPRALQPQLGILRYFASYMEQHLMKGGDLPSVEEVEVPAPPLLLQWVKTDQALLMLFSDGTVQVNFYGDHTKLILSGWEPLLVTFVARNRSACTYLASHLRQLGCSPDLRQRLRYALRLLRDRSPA

PIK3C2B (human) = PIK3C2B (human) (UniProt O00750)
PIK3C2B (human), sequence (O00750 whole entry, looked up): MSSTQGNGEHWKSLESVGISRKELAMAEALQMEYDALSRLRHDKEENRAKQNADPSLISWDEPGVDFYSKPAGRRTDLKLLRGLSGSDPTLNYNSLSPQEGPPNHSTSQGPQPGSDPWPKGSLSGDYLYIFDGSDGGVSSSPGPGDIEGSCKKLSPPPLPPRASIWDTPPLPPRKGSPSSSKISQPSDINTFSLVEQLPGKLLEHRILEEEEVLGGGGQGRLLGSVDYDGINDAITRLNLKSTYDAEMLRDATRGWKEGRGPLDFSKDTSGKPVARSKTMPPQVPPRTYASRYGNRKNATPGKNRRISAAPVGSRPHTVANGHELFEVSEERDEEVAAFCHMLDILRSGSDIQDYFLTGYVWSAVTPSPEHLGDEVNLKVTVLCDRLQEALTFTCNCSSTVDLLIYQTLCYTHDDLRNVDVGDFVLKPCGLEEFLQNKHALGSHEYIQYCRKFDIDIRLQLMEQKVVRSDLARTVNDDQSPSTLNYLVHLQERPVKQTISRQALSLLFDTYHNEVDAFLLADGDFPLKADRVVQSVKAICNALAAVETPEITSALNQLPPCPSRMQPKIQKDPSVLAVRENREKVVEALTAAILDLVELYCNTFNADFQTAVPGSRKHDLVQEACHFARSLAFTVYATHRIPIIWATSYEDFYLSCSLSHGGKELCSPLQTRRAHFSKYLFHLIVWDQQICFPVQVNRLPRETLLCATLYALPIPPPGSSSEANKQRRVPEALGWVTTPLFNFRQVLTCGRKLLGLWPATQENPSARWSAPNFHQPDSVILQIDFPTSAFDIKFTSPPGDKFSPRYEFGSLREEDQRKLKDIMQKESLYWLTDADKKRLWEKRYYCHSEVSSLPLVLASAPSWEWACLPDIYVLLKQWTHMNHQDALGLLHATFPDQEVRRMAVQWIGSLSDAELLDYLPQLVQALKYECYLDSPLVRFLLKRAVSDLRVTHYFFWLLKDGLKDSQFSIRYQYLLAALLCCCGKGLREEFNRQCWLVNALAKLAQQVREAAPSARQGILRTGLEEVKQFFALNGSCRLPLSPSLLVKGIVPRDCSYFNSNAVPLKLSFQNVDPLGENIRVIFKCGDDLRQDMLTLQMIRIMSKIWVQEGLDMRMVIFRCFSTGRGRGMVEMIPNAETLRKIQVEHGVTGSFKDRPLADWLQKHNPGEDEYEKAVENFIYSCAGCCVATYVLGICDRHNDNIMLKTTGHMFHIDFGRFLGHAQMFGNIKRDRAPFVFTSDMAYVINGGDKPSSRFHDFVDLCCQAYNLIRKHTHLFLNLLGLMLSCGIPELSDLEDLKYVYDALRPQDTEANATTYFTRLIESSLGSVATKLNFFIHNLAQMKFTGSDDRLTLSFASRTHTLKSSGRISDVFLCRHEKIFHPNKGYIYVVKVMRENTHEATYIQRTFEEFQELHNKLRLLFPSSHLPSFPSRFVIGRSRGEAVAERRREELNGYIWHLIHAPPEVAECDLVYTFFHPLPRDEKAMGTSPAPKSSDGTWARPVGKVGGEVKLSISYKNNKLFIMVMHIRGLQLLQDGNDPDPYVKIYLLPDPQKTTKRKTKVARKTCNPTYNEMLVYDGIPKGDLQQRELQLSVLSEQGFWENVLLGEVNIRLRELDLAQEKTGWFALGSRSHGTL

DAPK2 (human) = DAPK2 (human) (UniProt Q9UIK4)
SGK3 (human) = SGK3 (human) (UniProt Q96BR1)
ALK (human) = ALK (human) (UniProt Q9UM73)
EPHA2 (human) = EPHA2 (human) (UniProt P29317)
[3] = tested on: FLT3 (human), P36888 [D835Y]
SRPK3 (human) = SRPK3 (human) (UniProt Q9UPE1)
CAMK1G (human) = CAMK1G (human) (UniProt Q96NX5)
PRKAA1 (human) = PRKAA1 (human) (UniProt Q13131)
[4] = target: TYK2 JH2 pseudokinase (human) (UniProt P29597)
STK10 (human) = STK10 (human) (UniProt O94804)
CHEK1 (human) = CHEK1 (human) (UniProt O14757)
GSK3B (human) = GSK3B (human) (UniProt P49841)
ADCK4 (human) = ADCK4 (human) (UniProt Q96D53)
[5] = tested on: PIK3CA (human), P42336 [E545K]
MAP2K5 (human) = MAP2K5 (human) (UniProt Q13163)
ROS1 (human) = ROS1 (human) (UniProt P08922)
EGFR (human) = EGFR (human) (UniProt P00533)
MARK2 (human) = MARK2 (human) (UniProt Q7KZI7)
[6] = tested on: FLT3 (human), P36888 [ITD]
PLK4 (human) = PLK4 (human) (UniProt O00444)
FRK (human) = FRK (human) (UniProt P42685)

SBK1 (human), sequence (Q52WX2 whole entry, looked up): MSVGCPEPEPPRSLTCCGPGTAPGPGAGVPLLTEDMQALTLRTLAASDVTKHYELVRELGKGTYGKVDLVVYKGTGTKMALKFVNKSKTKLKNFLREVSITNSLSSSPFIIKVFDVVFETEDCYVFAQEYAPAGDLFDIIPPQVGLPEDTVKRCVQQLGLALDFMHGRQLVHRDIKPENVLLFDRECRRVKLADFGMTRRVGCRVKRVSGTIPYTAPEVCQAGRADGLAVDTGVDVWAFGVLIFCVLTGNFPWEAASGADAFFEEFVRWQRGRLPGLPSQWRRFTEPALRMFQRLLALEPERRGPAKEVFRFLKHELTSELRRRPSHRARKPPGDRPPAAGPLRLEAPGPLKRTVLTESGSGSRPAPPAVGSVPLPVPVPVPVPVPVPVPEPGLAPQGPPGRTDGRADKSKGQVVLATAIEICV

SMILES: CN(C)C/C=C/C(=O)Nc1cccc(C(=O)Nc2ccc(Nc3nccc(-c4c(-c5ccccc5)nn5ccccc45)n3)cc2)c1
- kinase still bound, per cent of control (SBK1 (human)): 92%
- kinase still bound, per cent of control (OXSR1 (human)): 100%
- kinase still bound, per cent of control (EPHA5 (human)): 98%
- kinase still bound, per cent of control (NIM1 (human)): 100%
- kinase still bound, per cent of control (CAMK1D (human)): 100%
- kinase still bound, per cent of control (MAP3K10 (human)): 100%
- kinase still bound, per cent of control [1]: 100%
- kinase still bound, per cent of control (PKN2 (human)): 100%
- kinase still bound, per cent of control (TAOK3 (human)): 42%
- kinase still bound, per cent of control [2]: 1.6%
- kinase still bound, per cent of control (LIMK2 (human)): 100%
- kinase still bound, per cent of control (FES (human)): 100%
- kinase still bound, per cent of control (CLK2 (human)): 90%
- kinase still bound, per cent of control (NEK2 (human)): 93%
- kinase still bound, per cent of control (MAP3K6 (human)): 100%
- kinase still bound, per cent of control (CHUK (human)): 93%
- kinase still bound, per cent of control (AKT2 (human)): 100%
- kinase still bound, per cent of control (YES1 (human)): 12%
- kinase still bound, per cent of control (TEK (human)): 67%
- kinase still bound, per cent of control (MAPK10 (human)): 0%
- kinase still bound, per cent of control (PLK3 (human)): 100%
- kinase still bound, per cent of control (PIK3C2B (human)): 100%
- kinase still bound, per cent of control (DAPK2 (human)): 97%
- kinase still bound, per cent of control (SGK3 (human)): 91%
- kinase still bound, per cent of control (ALK (human)): 100%
- kinase still bound, per cent of control (EPHA2 (human)): 76%
- kinase still bound, per cent of control [3]: 54%
- kinase still bound, per cent of control (SRPK3 (human)): 100%
- kinase still bound, per cent of control (CAMK1G (human)): 94%
- kinase still bound, per cent of control (PRKAA1 (human)): 100%
- kinase still bound, per cent of control [4]: 100%
- kinase still bound, per cent of control (STK10 (human)): 23%
- kinase still bound, per cent of control (CHEK1 (human)): 100%
- kinase still bound, per cent of control (GSK3B (human)): 49%
- kinase still bound, per cent of control (ADCK4 (human)): 0%
- kinase still bound, per cent of control [5]: 100%
- kinase still bound, per cent of control (MAP2K5 (human)): 23%
- kinase still bound, per cent of control (ROS1 (human)): 100%
- kinase still bound, per cent of control (EGFR (human)): 1.8%
- kinase still bound, per cent of control (MARK2 (human)): 98%
- kinase still bound, per cent of control [6]: 11%
- kinase still bound, per cent of control (PLK4 (human)): 92%
- kinase still bound, per cent of control (FRK (human)): 32%

SMILES: CN(C)C/C=C/C(=O)Nc1cccc(C(=O)Nc2ccc(Nc3nccc(/C(C#N)=C4\Nc5ccccc5S4)n3)cc2)c1
- kinase still bound, per cent of control (SBK1 (human)): 100%
- kinase still bound, per cent of control (OXSR1 (human)): 100%
- kinase still bound, per cent of control (EPHA5 (human)): 100%
- kinase still bound, per cent of control (NIM1 (human)): 86%
- kinase still bound, per cent of control (CAMK1D (human)): 100%
- kinase still bound, per cent of control (MAP3K10 (human)): 68%
- kinase still bound, per cent of control [1]: 100%
- kinase still bound, per cent of control (PKN2 (human)): 87%
- kinase still bound, per cent of control (TAOK3 (human)): 100%
- kinase still bound, per cent of control [2]: 100%
- kinase still bound, per cent of control (LIMK2 (human)): 97%
- kinase still bound, per cent of control (FES (human)): 100%
- kinase still bound, per cent of control (CLK2 (human)): 100%
- kinase still bound, per cent of control (NEK2 (human)): 99%
- kinase still bound, per cent of control (MAP3K6 (human)): 100%
- kinase still bound, per cent of control (CHUK (human)): 100%
- kinase still bound, per cent of control (AKT2 (human)): 100%
- kinase still bound, per cent of control (YES1 (human)): 100%
- kinase still bound, per cent of control (TEK (human)): 100%
- kinase still bound, per cent of control (MAPK10 (human)): 0.05%
- kinase still bound, per cent of control (PLK3 (human)): 59%
- kinase still bound, per cent of control (PIK3C2B (human)): 96%
- kinase still bound, per cent of control (DAPK2 (human)): 100%
- kinase still bound, per cent of control (SGK3 (human)): 97%
- kinase still bound, per cent of control (ALK (human)): 100%
- kinase still bound, per cent of control (EPHA2 (human)): 100%
- kinase still bound, per cent of control [3]: 73%
- kinase still bound, per cent of control (SRPK3 (human)): 82%
- kinase still bound, per cent of control (CAMK1G (human)): 100%
- kinase still bound, per cent of control (PRKAA1 (human)): 100%
- kinase still bound, per cent of control [4]: 33%
- kinase still bound, per cent of control (STK10 (human)): 86%
- kinase still bound, per cent of control (CHEK1 (human)): 100%
- kinase still bound, per cent of control (GSK3B (human)): 93%
- kinase still bound, per cent of control (ADCK4 (human)): 48%
- kinase still bound, per cent of control [5]: 100%
- kinase still bound, per cent of control (MAP2K5 (human)): 100%
- kinase still bound, per cent of control (ROS1 (human)): 58%
- kinase still bound, per cent of control (EGFR (human)): 81%
- kinase still bound, per cent of control (MARK2 (human)): 100%
- kinase still bound, per cent of control [6]: 57%
- kinase still bound, per cent of control (PLK4 (human)): 97%
- kinase still bound, per cent of control (FRK (human)): 100%

SMILES: Cc1cc(NC(=O)c2cccc(NC(=O)/C=C/CN(C)C)c2)ccc1Nc1nccc(-c2cccnc2)n1
- kinase still bound, per cent of control (SBK1 (human)): 96%
- kinase still bound, per cent of control (OXSR1 (human)): 89%
- kinase still bound, per cent of control (EPHA5 (human)): 100%
- kinase still bound, per cent of control (NIM1 (human)): 100%
- kinase still bound, per cent of control (CAMK1D (human)): 100%
- kinase still bound, per cent of control (MAP3K10 (human)): 87%
- kinase still bound, per cent of control [1]: 100%
- kinase still bound, per cent of control (PKN2 (human)): 58%
- kinase still bound, per cent of control (TAOK3 (human)): 66%
- kinase still bound, per cent of control [2]: 71%
- kinase still bound, per cent of control (LIMK2 (human)): 98%
- kinase still bound, per cent of control (FES (human)): 89%
- kinase still bound, per cent of control (CLK2 (human)): 95%
- kinase still bound, per cent of control (NEK2 (human)): 100%
- kinase still bound, per cent of control (MAP3K6 (human)): 92%
- kinase still bound, per cent of control (CHUK (human)): 100%
- kinase still bound, per cent of control (AKT2 (human)): 100%
- kinase still bound, per cent of control (YES1 (human)): 86%
- kinase still bound, per cent of control (TEK (human)): 76%
- kinase still bound, per cent of control (MAPK10 (human)): 0%
- kinase still bound, per cent of control (PLK3 (human)): 66%
- kinase still bound, per cent of control (PIK3C2B (human)): 100%
- kinase still bound, per cent of control (DAPK2 (human)): 77%
- kinase still bound, per cent of control (SGK3 (human)): 48%
- kinase still bound, per cent of control (ALK (human)): 85%
- kinase still bound, per cent of control (EPHA2 (human)): 100%
- kinase still bound, per cent of control [3]: 58%
- kinase still bound, per cent of control (SRPK3 (human)): 70%
- kinase still bound, per cent of control (CAMK1G (human)): 100%
- kinase still bound, per cent of control (PRKAA1 (human)): 100%
- kinase still bound, per cent of control [4]: 80%
- kinase still bound, per cent of control (STK10 (human)): 100%
- kinase still bound, per cent of control (CHEK1 (human)): 98%
- kinase still bound, per cent of control (GSK3B (human)): 100%
- kinase still bound, per cent of control (ADCK4 (human)): 93%
- kinase still bound, per cent of control [5]: 100%
- kinase still bound, per cent of control (MAP2K5 (human)): 67%
- kinase still bound, per cent of control (ROS1 (human)): 90%
- kinase still bound, per cent of control (EGFR (human)): 100%
- kinase still bound, per cent of control (MARK2 (human)): 77%
- kinase still bound, per cent of control [6]: 50%
- kinase still bound, per cent of control (PLK4 (human)): 58%
- kinase still bound, per cent of control (FRK (human)): 100%
